Test results reported in patent US10253323B2, “Chloroplast transit peptides” (priority 2015, dated 2019).
“Also recorded” adds a separate entry of the source.

B1: TraP10: chimeric chloroplast transit peptide, SEQ ID NO:1; N-terminus Brassica napus, C-terminus Glycine max EPSPS; tested fused to YFP (pDAB101979) (protein)
chain: MAQSSRICHGVQNPCVIISNLSKSNQNKSPFSVSLRPRLWGASKSRIPMHKNGSFMGNFNVGKGNSGVFKVS
modifications: TraP10
B2: TraP17: chimeric chloroplast transit peptide, SEQ ID NO:3; N-terminus Calystegia, C-terminus Chlamydamonas reinhardtii; tested fused to GFP (pDAB107634) (protein)
chain: MAQVNNMMQGLRLSPSNLSKPQTPLPSHSLLLGSNSLKNSVSASSVAPAPACSAPAGAGRRAVVVR
modifications: TraP17

Tests used:
[1] = system: chloroplasts of the tobacco leaf tissues; assay: Tobacco transient assay, confocal microscopy of TraP-YFP/GFP; assay type: cell-based, Nicotiana tabacum; settings: TraP-YFP or TraP-GFP fusion, Agrobacterium-infiltrated tobacco leaf tissue
Text: The above described chimeric chloroplast transit peptide sequences were initially tested via a transient in planta assay. Polynucleotide sequences which encode the TraP10 (SEQ ID NO:9), TraP11 (SEQ ID NO:10), TraP17 (SEQ ID NO:11), TraP18 (SEQ ID NO:12), TraP19 (SEQ ID NO:13), TraP26 (SEQ ID NO:14), TraP27 (SEQ ID NO:15), and TraP28 (SEQ ID NO:16), chimeric chloroplast transit peptide sequences were synthesized. A linker sequence (SEQ ID NO:17) was incorporated between the TraP sequence and the yfp coding sequence of TraP10 and TraP11. The resulting constructs contained two plant transcription units (PTU). The first PTU was comprised of the Arabidopsis thaliana Ubiquitin 10 promoter (AtUbi10 promoter; Callis, et al., (1990) J. Biol. Chem., 265: 12486-12493), TraP-yellow fluorescent protein fusion gene (TraP-YFP; US Patent App. 2007/0298412) or the TraP-green fluorescent protein fusion gene (TraP-GFP; Sheen et al., (1995) Plant J., 8(5): 777-84), and Agrobacterium tumefaciens ORF 23 3′ untranslated region (AtuORF23 3′UTR; U.S. Pat. No. 5,428,147). The second PTU was comprised of the Cassava Vein Mosaic Virus promoter (CsVMV promoter; Verdaguer et al., (1996) Plant Molecular Biology, 31: 1129-1139), phosphinothricin acetyl transferase (PAT; Wohlleben et al., (1988) Gene, 70: 25-37) or DSM-II (International Patent App. 2008070845), and Agrobacterium tumefaciens ORF 1 3′ untranslated region (AtuORF1 3′UTR; Huang et al., (1990) J. Bacteriol., 172: 1814-1822). Construct pDAB101979 contains the TraP10 chimeric chloroplast transit peptide (FIG. 3). Construct pDAB101980 contains the TraP11 chimeric chloroplast transit peptide (FIG. 4). Construct pDAB107634 contains the TraP17 chimeric chloroplast transit peptide (FIG. 5). Construct pDAB107635 contains the TraP18 chimeric chloroplast transit peptide (FIG. 6). Construct pDAB107636 contains the TraP19 chimeric chloroplast transit peptide (FIG. 7). Construct pDAB109847 contains the TraP26 chimeric chloroplast transit peptide (FIG. 8). Construct pDAB109848 contains the TraP27 chimeric chloroplast transit peptide (FIG. 9). Construct pDAB109849 contains the TraP28 chimeric chloroplast transit peptide (FIG. 10). […] The constructs were confirmed via restriction enzyme digestion and sequencing. Finally, the constructs were transformed into Agrobacterium tumefaciens and stored as glycerol stocks.
From an Agrobacterium glycerol stock, a loop full of frozen culture was inoculated into 2 ml of Yeast-extract Peptone Dextrose (100 μg/ml spectinomycin) in a 14 ml sterile tube. The inoculated media was incubated at 28° C. overnight with shaking at 200 rpm. The following day about 100 μl of the culture was used to inoculate 25 ml of YPD (100 μg/ml spectinomycin) in a 125 ml sterile tri-baffled flask, and incubated overnight at 28° C. overnight with shaking at 200 rpm. The following day the cultures were diluted to an OD600 of 0.5 in sterile ddH2O (pH 8.0). The diluted Agrobacterium strain was mixed with a second Agrobacterium strain containing the P19 helper protein at a ratio of 1:1. The culture were used for tobacco leaf infiltration via the Voinnet method. Voinnet O, Rivas S, Mestre P, and Baulcombe D, (2003) An enhanced transient expression system in plants based on suppression of gene silencing by the p19 protein of tomato bushy stunt virus. The Plant Journal, 33: 949-956. Infiltrated tobacco plants were placed in a Conviron™ set at 16 hr of light at 24° C. for at least three days until being assayed.
Agrobacterium-infiltrated tobacco leaves were severed from the plant, and placed into a petri-dish with water to prevent dehydration. The infiltrated tobacco leaves were observed under blue light excitation with long-pass filter glasses held in place using a Dark Reader Hand Lamp™ (Clare Chemical Research Co.; Dolores, Colo.) to identify undamaged areas of the leaf that were successfully expressing the YFP or GFP reporter proteins. […]

[2] = system: infiltrated tobacco cells; assay: Western blot of infiltrated tobacco plants; assay type: cell-based, Nicotiana tabacum; settings: infiltrated tobacco leaf tissue
Protocol: Samples of the infiltrated tobacco plants were assayed via Western blotting. Leaf punches were collected and subjected to bead-milling. About 100-200 mg of leaf material was mixed with 2 BBs (Daisy; Rogers, Ark.) and […] of PBST for 3 minutes in a Kleco™ bead mill. The samples were then spun down in a centrifuge at 14,000× g at 4° C. The supernatant was removed and either analyzed directly via Western blot or immunoprecipitated. The immunoprecipitations were performed using the Pierce Direct IP Kit™ (Thermo Scientific; Rockford, Ill.) following the manufacturer's protocol. Approximately, 50 μg of anti-YFP or anti-GFP was bound to the resin. The samples were incubated with the resin overnight at 4° C. Next, the samples were washed and eluted the following morning and prepped for analysis by combining equal volumes of 2×8M Urea sample buffer and then boiling the samples for 5 minutes. The boiled samples were run on a 4-12% SDS-Bis Tris gel in MOPS buffer for 40 minutes. The gel was then blotted using the Invitrogen iBlot™ (Life Technologies; Carlsbad, Calif.) following the manufacturer's protocol. The blotted membrane was blocked for 10 minutes using 5% non-fat dry milk in PBS-Tween® solution. The membrane was probed with the primary antibody (monoclonal anti-GFP or anti-YFP in rabbit) used at a 1:1000 dilution in the 5% non-fat dry milk in PBS-Tween® solution for 1 hour. Next, the membrane was rinsed three times for five minutes with PBS-Tween® to remove all unbound primary antibody. The membrane was probed with a secondary monoclonal anti-rabbit in goat antibody (Life Technologies) used at a 1:1000 dilution, for 60 minutes. The membrane was washed as previously described and developed by adding Themo BCIP/NBT™ substrate. The colormetric substrate was allowed to develop for 5-10 minutes and then the blots were rinsed with water before being dried.

[3] = system: dgt-28 transformed T1 Arabidopsis; assay: Glyphosate tolerance of dgt-28 transformed T1 Arabidopsis; assay type: in vivo, Arabidopsis thaliana; settings: dgt-28 linked with the chloroplast transit peptide, T1 Arabidopsis
Protocol: The Arabidopsis T1 transformants (from transformation with pDAB114286 or pDAB114287) were first selected from the background of untransformed seed using a glufosinate selection scheme. Three flats or 50,000 seed were analyzed for each T1 construct. The selected T1 plants were molecularly characterized (as described above) and events with a range of copy number were sprayed with various rates of commercial glyphosate.
Transgenic T1 Arabidopsis plants containing the dgt-28 transgene were sprayed with differing rates of glyphosate. Elevated rates were applied in this study to determine the relative levels of resistance (420, 840, 1,680 or 3,360 g ae/ha). The typical 1× field usage rate of glyphosate is 1120 g ae/ha. The response of these plants is presented in terms of % visual injury 2 weeks after treatment (WAT). The T1 Arabidopsis plants that were used in this study were of variable copy number for the dgt-28 transgene. The low copy dgt-28 T1 Arabidopsis plants were self-pollinated and used to produce T2 plants.
An arithmetic mean and standard deviation is presented for each construct used for Arabidopsis transformation. The range in individual response is also indicated in the last column for each rate and transformation. Wildtype, non-transformed Arabidopsis thaliana c.v. Columbia served as a glyphosate sensitive control.

[4] = system: chloroplasts of the maize protoplasts; assay: Maize protoplast transient assay, microscopy of TraP-GFP; assay type: cell-based, Zea mays c.v. B104; settings: TraP-GFP fusion, transfected maize protoplasts, microscopy after 12 hours
Protocol: Seed of Zea mays c.v. B104 were surface sterilized by shaking vigorously in 50% Clorox™ (3% sodium hypochlorite), containing 2-3 drops of Tween® 20, for about 20 minutes. The seeds were rinsed thoroughly with sterile distilled water. The sterile seed were plated onto ½ MS medium in Phytatrays or similar type boxes, and allowed to grow in the dark (28° C.) for 12 to 20 days. A maize protoplast transient assay was used to obtain and transfect maize protoplasts from leaves of Zea mays c.v. B104. This maize protoplast assay is a modification of the system described by Yoo, S.-D., Cho, Y.-H., and Sheen, J., (2007), Arabidopsis Mesophyll Protoplasts: A Versitile Cell System for Transient Gene Expression Analysis, Nature Protocols, 2: 1565-1572. The solutions were prepared as described by Yoo et. al., (2007), with the exception that the mannitol concentration used for the following experiments was change to 0.6 M.
Transfection of 100 to 500 μl of protoplasts (1-5×10^5 cells) was completed by adding the protoplasts to a 2 ml microfuge tube containing about 40 μg of plasmid DNA, at room temperature. The volume of DNA was preferably kept to about 10% of the protoplast volume. The protoplasts and DNA were occasionally mixed during a 5 minute incubation period. An equal volume of PEG solution was slowly added to the protoplasts and DNA, 2 drops at a time with mixing in between the addition of the drops of PEG solution. The tubes were allowed to incubate for about 10 minutes with occasional gentle mixing. Next, 1 ml of W5+ solution was added and mixed by inverting the tube several times. The tube(s) were centrifuged for 5 minutes at 75× g at a temperature of 4° C. Finally, the supernatant was removed and the pellet was resuspended in 1 ml of WI solution and the protoplasts were placed into a small petri plate (35×10 mm) or into 6-well multiwell plates and incubated overnight in the dark at room temperature. Fluorescence of GFP was viewed by microscopy after 12 hours of incubation. The microscopy conditions similar to those previously described were used for the imaging.

Row | Molecule | translocation of YFP or GFP fluorescent protein into chloroplasts [1] | translocation of YFP or GFP fluorescent protein into chloroplasts ([1]; listed as TraP28-GFP) | TraP processed and cleaved from the YFP or GFP protein [2] | protection to glyphosate [3] | translocation of YFP or GFP fluorescent protein into chloroplasts ([1]; listed as TraP26-GFP) | translocation of YFP or GFP fluorescent protein into chloroplasts ([1]; listed as TraP10-YFP) | translocation of GFP fluorescent protein into chloroplasts [4] | translocation of GFP fluorescent protein into chloroplasts ([4]; listed as TraP17-GFP) | translocation of YFP or GFP fluorescent protein into chloroplasts ([1]; listed as TraP17-GFP)
1 | TraP28: synthetic chloroplast transit peptide, SEQ ID NO:8; tested fused to GFP (pDAB109849) (MAVQSNMICAGVANPFVSPNLSKTRASKSVYSVLGTRLNSSARGKKSAMPLIGNRVPVSA; TraP28) | accumulated within the chloroplasts; also recorded: successfully targeted GFP to tobacco chloroplasts | translocated into the chloroplasts | processed and cleaved from the YFP or GFP protein | – | – | – | – | – | –
2 | TraP26: synthetic chloroplast transit peptide, SEQ ID NO:6; tested fused to GFP (pDAB109847) (MAQVSMIPNAIQAPCSISLSKSQAGKSVRKVSLKPNQHAAWGLRRSGMRVGNPEVVVSAS; TraP26) | accumulated within the chloroplasts; also recorded: successfully targeted GFP to tobacco chloroplasts | – | processed and cleaved from the YFP or GFP protein | provide protection to glyphosate | translocated into the chloroplasts | – | – | – | –
3 | B1 | accumulated within the chloroplasts; also recorded: successfully targeted YFP to tobacco chloroplasts | – | processed and cleaved from the YFP or GFP protein | – | – | translocated into the chloroplasts | – | – | –
4 | B2 | did not translocate YFP fluorescent proteins into the chloroplasts of tobacco | – | – | – | – | – | did translocate YFP fluorescent proteins into the chroroplasts of maize; also recorded: accumulated within the chloroplasts; also recorded: successfully targeted GFP to maize chloroplasts | translocated into the chloroplasts | did not translocate into the chloroplasts
